Results: patent US9247759B2, “Identification of human T2R receptors that respond to bitter compounds that elicit the bitter taste in compositions, and the use thereof in assays to identify compounds that inhibit (block) bitter taste in compositions and use thereof” (SENOMYX, INC., priority 2007, dated 2016)

What was measured:
hT2R61 = hT2R61 (Homo sapiens (Human), UniProt P59537); assay: hT2R panel inhibition, transient HEK293 G16g44, agonist Aristolochic Acid 25 nM; format: cell-based; details: HEK293, compound at 25 μM; receptor activated to EC80 with the corresponding agonist; read-out: screening result against bitter receptor 61
hT2R61, sequence (P59537 whole entry): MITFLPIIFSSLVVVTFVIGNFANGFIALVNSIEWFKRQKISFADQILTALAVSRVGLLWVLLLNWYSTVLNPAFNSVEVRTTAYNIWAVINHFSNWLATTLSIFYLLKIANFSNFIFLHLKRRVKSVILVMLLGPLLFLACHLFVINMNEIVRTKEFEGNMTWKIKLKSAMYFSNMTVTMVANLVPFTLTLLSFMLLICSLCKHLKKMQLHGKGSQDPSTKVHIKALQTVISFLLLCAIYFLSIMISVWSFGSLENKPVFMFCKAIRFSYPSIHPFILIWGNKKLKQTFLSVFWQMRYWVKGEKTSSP
Outline: (§1)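 Receptor activity was measured in functional assays after single-receptor transient transfection; bitter agonists were used at their EC80 levels. A decrease in that activity when the test compound was added was taken as inhibition.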

hT2R63 = assay: hT2R panel inhibition, transient HEK293 G16g44, agonist Caffeine 1 mM or Andrographolide 100 μM; format: cell-based, human; details: compound at 25 μM; receptor activated to EC80 with the corresponding agonist
Outline: as §1

hT2R14 [1] = target: T1, hT2R14 (Homo sapiens (Human), UniProt Q9NYV8); assay: hT2R14 antagonist high-throughput FLIPR assay, stable cell line with G16g44, agonist aristolochic acid; format: cell-based; details: read-out: IC50 on hT2R14 bitter receptor
T1 sequence (Q9NYV8 whole entry): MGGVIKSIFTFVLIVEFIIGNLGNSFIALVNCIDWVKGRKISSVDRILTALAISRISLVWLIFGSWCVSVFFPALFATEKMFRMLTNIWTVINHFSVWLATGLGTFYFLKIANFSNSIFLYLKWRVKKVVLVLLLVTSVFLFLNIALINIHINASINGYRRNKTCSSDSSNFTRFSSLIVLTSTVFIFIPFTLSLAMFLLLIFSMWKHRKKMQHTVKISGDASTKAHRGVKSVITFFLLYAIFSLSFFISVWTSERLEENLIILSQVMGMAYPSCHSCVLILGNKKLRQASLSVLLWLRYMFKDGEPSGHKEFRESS
Outline: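 HEK293 cells stably expressing hT2R14 with chimeric G16g44 were stimulated with aristolochic acid (3 μM), giving 70-80% of maximal receptor activity. Test compounds were added together with the agonist, and antagonism was read as fluorescent calcium signal on FLIPR.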

hT2R4 = hT2R4 (Homo sapiens (Human), UniProt Q9NYW5); assay: hT2R panel inhibition, transient HEK293 G16g44, agonist Chloroquine pH6.5 5 mM; format: cell-based; details: HEK293, compound at 25 μM; receptor activated to EC80 with the corresponding agonist; class symbols; read-out: screening result against bitter receptor 4
hT2R4, sequence (Q9NYW5 whole entry): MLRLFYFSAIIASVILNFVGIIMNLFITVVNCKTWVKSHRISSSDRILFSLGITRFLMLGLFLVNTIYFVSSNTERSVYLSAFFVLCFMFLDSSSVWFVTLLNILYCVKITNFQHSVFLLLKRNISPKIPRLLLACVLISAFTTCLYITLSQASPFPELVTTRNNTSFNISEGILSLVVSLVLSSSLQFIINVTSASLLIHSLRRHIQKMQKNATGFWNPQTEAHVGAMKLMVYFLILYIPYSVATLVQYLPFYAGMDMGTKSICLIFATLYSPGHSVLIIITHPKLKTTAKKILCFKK
Outline: as §1

hT2R65 = assay: hT2R panel inhibition, transient HEK293 G16g44, agonist Oleuropein 1 mM; format: cell-based, human; details: compound at 25 μM; receptor activated to EC80 with the corresponding agonist
Outline: as §1

hT2R64 = hT2R64 (Homo sapiens (Human), UniProt P59538); assay: hT2R panel inhibition, transient HEK293 G16g44, agonist Aristolochic Acid 1 μM; format: cell-based; details: HEK293, compound at 25 μM; receptor activated to EC80 with the corresponding agonist; read-out: screening result against bitter receptor 64
hT2R64, sequence (P59538 whole entry): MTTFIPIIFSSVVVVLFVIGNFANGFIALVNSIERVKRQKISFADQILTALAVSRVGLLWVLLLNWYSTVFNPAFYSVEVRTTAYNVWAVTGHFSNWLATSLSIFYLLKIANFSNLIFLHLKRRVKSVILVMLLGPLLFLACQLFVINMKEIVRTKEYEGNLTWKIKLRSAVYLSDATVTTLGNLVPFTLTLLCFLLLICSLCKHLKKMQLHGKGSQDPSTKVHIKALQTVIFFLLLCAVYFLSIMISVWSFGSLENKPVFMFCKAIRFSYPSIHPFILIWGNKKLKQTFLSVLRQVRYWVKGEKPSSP
Outline: as §1

hT2R51 = hT2R51 (Homo sapiens (Human), UniProt P59533); assay: hT2R panel inhibition, transient HEK293 G16g44, agonist Prop 2.5 μM; format: cell-based; details: HEK293, compound at 25 μM; receptor activated to EC80 with the corresponding agonist; read-out: screening result against bitter receptor 51
hT2R51, sequence (P59533 whole entry): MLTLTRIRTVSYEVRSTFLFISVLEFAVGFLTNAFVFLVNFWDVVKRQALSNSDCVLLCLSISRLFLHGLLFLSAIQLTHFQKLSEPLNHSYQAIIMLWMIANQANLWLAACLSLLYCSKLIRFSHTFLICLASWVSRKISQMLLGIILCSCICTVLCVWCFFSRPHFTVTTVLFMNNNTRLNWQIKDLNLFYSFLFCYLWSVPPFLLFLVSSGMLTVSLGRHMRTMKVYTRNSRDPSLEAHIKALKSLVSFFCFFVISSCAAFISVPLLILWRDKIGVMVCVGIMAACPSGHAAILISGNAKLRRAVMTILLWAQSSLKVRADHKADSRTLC
Outline: as §1

hT2R14 [2] = target: T1, hT2R14; assay: hT2R panel inhibition, transient HEK293 G16g44, agonist Aristolochic Acid 2 μM; format: cell-based; details: HEK293, compound at 25 μM; receptor activated to EC80 with the corresponding agonist; read-out: screening result against bitter receptor 14
Outline: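 Each hT2R was transiently transfected into HEK293 cells stably expressing G16g44 and assayed functionally for inhibition of agonist response. Agonists were applied at EC80: andrographolide at 0.5 mM for hT2R8 and aristolochic acid at 2 μM for hT2R14.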

hT2R16 = hT2R16 (Homo sapiens (Human), UniProt Q9NYV7); assay: hT2R panel inhibition, transient HEK293 G16g44, agonist Salicin 1 mM; format: cell-based; details: HEK293, compound at 25 μM; receptor activated to EC80 with the corresponding agonist; read-out: screening result against bitter receptor 16
hT2R16, sequence (Q9NYV7 whole entry): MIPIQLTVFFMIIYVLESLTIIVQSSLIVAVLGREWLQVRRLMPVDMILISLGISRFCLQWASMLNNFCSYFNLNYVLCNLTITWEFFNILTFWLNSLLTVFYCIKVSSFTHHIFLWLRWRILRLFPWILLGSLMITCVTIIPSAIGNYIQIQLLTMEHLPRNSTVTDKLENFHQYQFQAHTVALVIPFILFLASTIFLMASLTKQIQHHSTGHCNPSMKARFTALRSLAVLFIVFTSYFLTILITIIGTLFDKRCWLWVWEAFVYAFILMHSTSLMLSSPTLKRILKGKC
Outline: as §1

hT2R55 = assay: hT2R panel inhibition, transient HEK293 G16g44, agonist Cinchonine 150 μM; format: cell-based, human; details: compound at 25 μM; receptor activated to EC80 with the corresponding agonist
Outline: as §1

hT2R9 = hT2R9 (Homo sapiens (Human), UniProt Q9NYW1); assay: hT2R panel inhibition, transient HEK293 G16g44, agonist Ofloxacin 1 mM; format: cell-based; details: HEK293, compound at 25 μM; receptor activated to EC80 with the corresponding agonist; read-out: screening result against bitter receptor 9
hT2R9, sequence (Q9NYW1 whole entry): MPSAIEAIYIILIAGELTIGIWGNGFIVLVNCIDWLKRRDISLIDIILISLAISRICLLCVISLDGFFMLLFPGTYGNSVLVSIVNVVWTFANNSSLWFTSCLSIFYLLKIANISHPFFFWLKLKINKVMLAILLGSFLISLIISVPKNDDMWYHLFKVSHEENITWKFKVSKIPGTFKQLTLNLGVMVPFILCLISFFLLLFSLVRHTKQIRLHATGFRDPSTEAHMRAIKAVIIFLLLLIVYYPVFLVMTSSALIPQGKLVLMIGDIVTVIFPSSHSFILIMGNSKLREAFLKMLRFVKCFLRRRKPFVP
Procedure: Specifically, in order to evaluate the inhibitory selectivity of the Compound C compound, this compound was tested against 22 human T2Rs which were deorphaned by Senomyx. These receptors and the bitter ligands that activate these human T2Rs are reported in earlier patent applications which are incorporated by reference herein. These 22 human T2Rs are hT2R1, 3, 4, 5, 7, 8, 9, 10, 13, 14, 16, 44, 51, 54, 55, 61, 63, 64, 65, 67, 71 and 75. The amino acid and nucleic acid sequences of all of these T2Rs may be found in these earlier patent applications. These human T2Rs were each individually transiently transfected into HEK293 cells that stably express the promiscuous G protein G16g44 and functional assays were effected using these receptors as disclosed in these same patent applications. […] The ligands were used at EC80 concentration levels. The list of bitter ligands utilized and the tested ligand concentrations are contained in Table 5 of this example.
Relating to the foregoing, FIG. 5 contains experimental results wherein Compound C was tested with different agonist compounds. The inhibition activity is represented by the reduction of receptor activity in the presence of Compound C. […] These 13 hT2Rs are hT2R3, 7, 10, 14, 16, 44, 51, 55, 61, 63, 64, 65, and 71.

hT2R3 = hT2R3 (Homo sapiens (Human), UniProt Q9NYW6); assay: hT2R panel inhibition, transient HEK293 G16g44, agonist Chloroquine pH6.5 50 μM; format: cell-based; details: HEK293, compound at 25 μM; receptor activated to EC80 with the corresponding agonist; read-out: screening result against bitter receptor 3
hT2R3, sequence (Q9NYW6 whole entry): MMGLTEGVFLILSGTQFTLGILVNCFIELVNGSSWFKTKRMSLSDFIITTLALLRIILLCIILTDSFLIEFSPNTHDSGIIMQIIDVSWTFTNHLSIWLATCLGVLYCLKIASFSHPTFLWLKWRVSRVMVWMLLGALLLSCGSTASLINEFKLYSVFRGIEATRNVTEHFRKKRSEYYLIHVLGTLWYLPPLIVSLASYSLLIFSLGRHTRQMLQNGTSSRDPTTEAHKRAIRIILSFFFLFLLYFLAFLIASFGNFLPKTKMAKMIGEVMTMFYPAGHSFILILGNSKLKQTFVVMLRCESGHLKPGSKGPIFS
Outline: as §1

hT2R10 = hT2R10 (Homo sapiens (Human), UniProt Q9NYW0); assay: hT2R panel inhibition, transient HEK293 G16g44, agonist Strychnine 50 μM; format: cell-based; details: HEK293, read-out: screening result against bitter receptor 10, compound at 25 μM; receptor activated to EC80 with the corresponding agonist
hT2R10, sequence (Q9NYW0 whole entry): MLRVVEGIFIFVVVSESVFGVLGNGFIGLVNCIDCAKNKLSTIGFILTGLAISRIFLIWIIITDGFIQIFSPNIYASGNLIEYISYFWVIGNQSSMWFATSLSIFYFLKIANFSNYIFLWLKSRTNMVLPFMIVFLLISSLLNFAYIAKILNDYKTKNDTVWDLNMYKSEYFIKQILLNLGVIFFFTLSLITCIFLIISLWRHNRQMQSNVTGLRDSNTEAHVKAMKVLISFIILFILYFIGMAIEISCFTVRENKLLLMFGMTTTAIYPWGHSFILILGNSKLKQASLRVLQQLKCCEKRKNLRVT

hT2R71 = hT2R71 (Homo sapiens (Human), UniProt P59536); assay: hT2R panel inhibition, transient HEK293 G16g44, agonist Picric Acid 10 μM; format: cell-based; details: HEK293, compound at 25 μM; receptor activated to EC80 with the corresponding agonist; read-out: screening result against bitter receptor 71
hT2R71, sequence (P59536 whole entry): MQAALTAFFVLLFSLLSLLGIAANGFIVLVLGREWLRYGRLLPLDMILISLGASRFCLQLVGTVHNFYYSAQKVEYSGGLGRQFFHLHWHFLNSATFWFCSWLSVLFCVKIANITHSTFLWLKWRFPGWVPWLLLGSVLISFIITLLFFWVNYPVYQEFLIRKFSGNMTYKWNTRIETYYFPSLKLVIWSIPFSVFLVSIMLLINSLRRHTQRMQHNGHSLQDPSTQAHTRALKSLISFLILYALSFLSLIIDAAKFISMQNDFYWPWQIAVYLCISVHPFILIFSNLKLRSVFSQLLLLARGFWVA
Outline: as §1

hT2R44 = assay: hT2R panel inhibition, transient HEK293 G16g44, agonist Denatonium 0.5 μM; format: cell-based, human; details: compound at 25 μM; receptor activated to EC80 with the corresponding agonist
Outline: as §1

hT2R54 = assay: hT2R panel inhibition, transient HEK293 G16g44, agonist Ranitidine 5 mM; format: cell-based, human; details: compound at 25 μM; receptor activated to EC80 with the corresponding agonist
Outline: as §1

hT2R5 = hT2R5 (Homo sapiens (Human), UniProt Q9NYW4); assay: hT2R panel inhibition, transient HEK293 G16g44, agonist Picoline 10 mM; format: cell-based; details: HEK293, compound at 25 μM; receptor activated to EC80 with the corresponding agonist; read-out: screening result against bitter receptor 5
hT2R5, sequence (Q9NYW4 whole entry): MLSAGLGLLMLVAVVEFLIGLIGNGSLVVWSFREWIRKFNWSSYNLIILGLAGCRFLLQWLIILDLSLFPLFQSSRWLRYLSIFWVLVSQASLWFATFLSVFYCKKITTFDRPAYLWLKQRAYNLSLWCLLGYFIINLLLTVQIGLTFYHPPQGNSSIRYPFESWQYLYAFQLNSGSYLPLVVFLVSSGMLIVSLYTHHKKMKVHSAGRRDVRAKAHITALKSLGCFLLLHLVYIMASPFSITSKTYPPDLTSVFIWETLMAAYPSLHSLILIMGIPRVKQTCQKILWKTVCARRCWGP
Outline: as §1

hT2R67 = assay: hT2R panel inhibition, transient HEK293 G16g44, agonist Andrographolide 5 μM; format: cell-based, human; details: compound at 25 μM; receptor activated to EC80 with the corresponding agonist
Outline: as §1

hT2R75 = hT2R75 (Homo sapiens (Human), UniProt P59540); assay: hT2R panel inhibition, transient HEK293 G16g44, agonist Strychnine 1 μM; format: cell-based; details: HEK293, read-out: screening result against bitter receptor 75, compound at 25 μM; receptor activated to EC80 with the corresponding agonist
hT2R75, sequence (P59540 whole entry): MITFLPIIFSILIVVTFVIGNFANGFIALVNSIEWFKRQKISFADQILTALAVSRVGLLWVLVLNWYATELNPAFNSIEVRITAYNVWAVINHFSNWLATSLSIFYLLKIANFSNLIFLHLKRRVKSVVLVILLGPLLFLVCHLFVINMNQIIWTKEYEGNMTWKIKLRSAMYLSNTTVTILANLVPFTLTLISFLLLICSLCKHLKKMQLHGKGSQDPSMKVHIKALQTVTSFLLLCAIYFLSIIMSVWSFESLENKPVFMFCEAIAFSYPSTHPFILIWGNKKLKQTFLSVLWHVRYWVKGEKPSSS

hT2R7 = hT2R7 (Homo sapiens (Human), UniProt Q9NYW3); assay: hT2R panel inhibition, transient HEK293 G16g44, agonist Chloroquine pH6.5 10 mM; format: cell-based; details: HEK293, compound at 25 μM; receptor activated to EC80 with the corresponding agonist; read-out: screening result against bitter receptor 7
hT2R7, sequence (Q9NYW3 whole entry): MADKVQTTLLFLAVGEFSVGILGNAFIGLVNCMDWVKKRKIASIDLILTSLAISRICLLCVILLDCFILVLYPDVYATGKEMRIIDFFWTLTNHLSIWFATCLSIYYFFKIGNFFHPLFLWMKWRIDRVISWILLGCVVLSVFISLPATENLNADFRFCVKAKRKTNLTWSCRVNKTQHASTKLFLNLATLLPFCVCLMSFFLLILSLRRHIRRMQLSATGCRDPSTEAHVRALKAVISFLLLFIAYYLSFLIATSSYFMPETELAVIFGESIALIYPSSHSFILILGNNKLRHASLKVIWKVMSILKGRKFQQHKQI
Outline: as §1

| SMILES | inhibition at 25 µM (hT2R61) [%] | screening result against bitter receptor 63 (hT2R63) | IC50 (hT2R14 [1]) [µM] | inhibition at 25 µM (hT2R4) [%] | screening result against bitter receptor 65 (hT2R65) | inhibition at 25 µM (hT2R64) [%] | inhibition at 25 µM (hT2R51) [%] | inhibition at 25 µM (hT2R14 [2]) [%] | inhibition at 25 µM (hT2R16) [%] | screening result against bitter receptor 55 (hT2R55) | inhibition at 25 µM (hT2R9) [%] | inhibition at 25 µM (hT2R3) [%] | inhibition at 25 µM (hT2R10) [%] | inhibition at 25 µM (hT2R71) [%] | screening result against bitter receptor 44 (hT2R44) | screening result against bitter receptor 54 (hT2R54) | inhibition at 25 µM (hT2R5) [%] | screening result against bitter receptor 67 (hT2R67) | inhibition at 25 µM (hT2R75) [%] | inhibition at 25 µM (hT2R7) [%] |
| --- | --- | --- | --- | --- | --- | --- | --- | --- | --- | --- | --- | --- | --- | --- | --- | --- | --- | --- | --- | --- |
| CCOc1ccc(CN(Cc2ccco2)S(=O)(=O)c2ccc(C(=O)O)cc2)cc1 [Example 5-3, 4-(N-(4-ethoxybenzyl)-N-(furan-2-ylmethyl)sulfamoyl)benzoic acid] | 40 to 60 | +++ (60% to 80% inhibition = +++) | 3 | 60 to 80 | + (20% to 40% inhibition = +) | > 80 | 20 to 40 | > 80 | 20 to 40 | ++++ (80% or greater inhibition = ++++) | 20 to 40 | 40 to 60 | 40 to 60 | 20 to 40 | ++ (40% to 60% inhibition = ++) | ++ (40% to 60% inhibition = ++) | – | – | – | – |
| Cc1ccc(S(=O)(=O)N(Cc2ccccc2)CC2CCC(C(=O)O)CC2)cc1 (stereo not shown) [Example 5-11, 4-((N-benzyl-4-methylphenylsulfonamido)methyl)cyclohexane-carboxylic acid] | > 80 | +++ (60% to 80% inhibition = +++) | 0.014 | 60 to 80 | + (20% to 40% inhibition = +) | 40 to 60 | – | > 80 | 40 to 60 | ++++ (80% or greater inhibition = ++++) | 20 to 40 | 60 to 80 | 40 to 60 | 60 to 80 | +++ (60% to 80% inhibition = +++) | – | 20 to 40 | + (20% to 40% inhibition = +) | 40 to 60 | 40 to 60 |
| COc1ccc(CN(Cc2ccccc2)S(=O)(=O)Cc2ccc(C(=O)O)cc2)cc1 [Example 5-16, 4-((N-benzyl-N-(4-methoxybenzyl)sulfamoyl)methyl)benzoic acid] | 60 to 80 | – | – | 20 to 40 | + (20% to 40% inhibition = +) | > 80 | – | 20 to 40 | 20 to 40 | ++++ (80% or greater inhibition = ++++) | 20 to 40 | 40 to 60 | 20 to 40 | 40 to 60 | +++ (60% to 80% inhibition = +++) | – | 20 to 40 | – | 20 to 40 | 20 to 40 |
